PMC5571359, “Screening the Medicines for Malaria Venture Pathogen Box across Multiple Pathogens Reclassifies Starting Points for Open-Source Drug Discovery” (Antimicrobial Agents and Chemotherapy, 2017)
Like-named read-outs stand apart in the source and are kept apart here.

Tests used:
[1] = system: T. b. brucei 427 bloodstream trypanosomes; experiment: T. b. brucei resazurin viability assay; type: cell-based, Trypanosoma brucei brucei; settings: Trypanosoma brucei; for IC50: read-out: IC50 T. brucei brucei trypomastigotes; for inhibition at 20 µM: read-out: percent inhibition at the top screening dose, T. brucei brucei
3T3 host cells = experiment: T. cruzi assay, activity against 3T3 host cells; type: cell-based; settings: reference compound set; for IC50: IA = inactive at 16.4 μM
Procedure: page 4: […] Puromycin, 71 chloroquine, artesunate, DHA, pyronaridine and pyrimethamine were also tested in 72 IC50 format to act as internal reference compounds. 73 74 Intracellular anti-Trypanosoma cruzi Assay Protocol 75 The host cell cytoplasm, in which the parasite resides, is identified by the fluorescent 76 marker, HCS CellMask Green. Parasite and host cell nuclei are detected with the 77 fluorescent DNA intercalator, Hoechst 33342. The Opera® High Content Screening 78 System is used to take images of wells and a spot detection algorithm is used to 79 identify parasites within the cytoplasm. 80 81 Briefly, 1x 10^3 3T3 cells were added to collagen coated 384-well plates and following 82 24 hrs incubation at 37 °C, a multiplicity of infection (MOI) of 5:1 parasite: host cells 83 were added to the plate using a Multidrop liquid handler. Following additional 24 hrs 84 incubation, extracellular parasites were washed from the plates and RPMI with no […] 86 added to all wells. The final volume of media in the primary screening assay, before 87 addition of compound, was modified slightly to 55 µL. One µL of compounds, provided 88 by Compounds Australia, were diluted by the addition of 25 µL of sterile water. This […] 91 donovani). Five microliters of this dilution was added to assay plates. The final […] The final concentrations of compounds in the […] Following 48 hrs incubation in the presence 97 of compounds, wells were fixed, stained and read on the Opera® High Content 98 Screening System to assess compound activity. 99 The Z′-factor, as a measure of assay reproducibility, was determined from a plate […] The positive control used to calculate activity against […] To 103 assess the sensitivity of the T. cruzi assay, activity of the reference compounds 104 benznidazole, NFX, posaconazole and puromycin were determined. […] 108 resazurin as a measure of parasite viability. 109 T. b. brucei trypanosomes were cultured in vitro in HM1-9 medium supplemented with […] Fifty-five µL of logarithmic phase […] 112 incubated for 24 hrs at 37°C /5% CO2. Compounds were subsequently added to the […] Following […] 116 37°C / 5% CO2 followed by 22 hrs at room temperature. […] The percent

[2] = system: T. cruzi intracellular amastigotes; experiment: Intracellular anti-Trypanosoma cruzi image-based assay (amastigotes); type: cell-based; settings: Trypanosoma cruzi; for inhibition at 16.4 µM: read-out: percent inhibition at the top screening dose, T. cruzi intracellular amastigotes; for Emax: read-out: T. cruzi Emax (maximal % inhibition plateau in dose response curve)
[3] = system: NF54-pfs16-LUC-GFP stage IV gametocytes; experiment: Plasmodium falciparum late stage gametocyte (LSG) image-based assay; type: cell-based; settings: Plasmodium falciparum; for IC50: NF54, read-out: IC50 P. falciparum NF54 LSG, reference compound set, 11-point dose response, IA = inactive at 20 μM; for inhibition at 20 µM: NF54, read-out: percent inhibition at the top screening dose, P. falciparum NF54 LSG
[4] = system: Plasmodium falciparum 3D7 asexual blood stage; experiment: microbe, parasite or virus in culture; settings: for inhibition at 20 µM: 3D7, read-out: percent inhibition at the top screening dose, P. falciparum 3D7 ABS
[5] = system: L. donovani MHOM/IN/80/DD8 intracellular amastigotes; experiment: Leishmania donovani intracellular amastigote assay in THP-1 cells; type: cell-based; settings: for IC50 / inhibition at 20 µM: Leishmania donovani; for inhibition at 20 µM: THP-1
[6] = reference compound set, IA = inactive at 20 μM
[7] = reference compound set, IA = inactive at 16.4 μM, read-out: IC50 T. cruzi intracellular amastigotes
[8] = 3D7, read-out: IC50 P. falciparum 3D7 ABS
[9] = THP-1, read-out: IC50 L. donovani n = 1, reference compound set, first test, IA = inactive at 20 μM
[10] = THP-1, read-out: IC50 L. donovani n = 2, reference compound set, second test, IA = inactive at 20 μM
[11] = reference compound set, first test, 20 μM, read-out: percent inhibition at the top screening dose, L. donovani n = 1
[12] = reference compound set, second test, 20 μM, read-out: percent inhibition at the top screening dose, L. donovani n = 2
[13] = in-house control stock, not the PBox sample, read-out: IC50 of standard in-house assay control, T. cruzi amastigotes

CCN(CC)C(=O)N1CCN(C)CC1 [Diethylcarbamazine, reference compound]
IC50 [1, 6]: > 20 µM
IC50 (3T3 host cells): > 16.4 µM
IC50 [2, 7]: > 16.4 µM
IC50 [3]: > 20 µM
IC50 [4, 8]: > 20 µM
IC50 [5, 9]: > 20 µM
IC50 [5, 10]: > 20 µM

CCCCCCCCCCCCCCCCOP(=O)([O-])OCC[N+](C)(C)C [Miltefosine, reference compound]
IC50 [1, 6]: > 20 µM
IC50 (3T3 host cells): > 16.4 µM
IC50 [2, 7]: > 16.4 µM
IC50 [3]: > 20 µM
IC50 [4, 8]: > 20 µM
IC50 [5, 9]: 11.7 µM
IC50 [5, 10]: 2.26 µM

CC(C)/N=c1\cc2n(-c3ccc(Cl)cc3)c3ccccc3nc-2cc1Nc1ccc(Cl)cc1 [Clofazimine, reference compound]
IC50 [1, 6]: > 20 µM
IC50 (3T3 host cells): > 16.4 µM
IC50 [2, 7]: > 16.4 µM
IC50 [3]: > 20 µM
inhibition at 20 µM [4]: 84%
IC50 [5, 9]: > 20 µM
IC50 [5, 10]: > 20 µM

O=C(Cn1ccnc1[N+](=O)[O-])NCc1ccccc1 [Benznidazole, reference compound]
IC50 [1, 6]: > 20 µM
IC50 (3T3 host cells): > 16.4 µM
inhibition at 16.4 µM ([2]; reference compound set): 94%
IC50 [3]: > 20 µM
IC50 [4, 8]: > 20 µM
IC50 [5, 9]: > 20 µM
IC50 [5, 10]: > 20 µM

C[C@@H]1[C@H](O)[C@@H](C)/C=C/C=C/C=C/C=C/C=C/C=C/C=C/[C@H](O[C@@H]2O[C@H](C)[C@@H](O)[C@H](N)[C@@H]2O)C[C@@H]2O[C@](O)(C[C@@H](O)C[C@@H](O)[C@H](O)CC[C@@H](O)C[C@@H](O)CC(=O)O[C@H]1C)C[C@H](O)[C@H]2C(=O)O [Amphotericin B]
IC50 [1, 6]: > 20 µM
IC50 (3T3 host cells): > 16.4 µM
IC50 [2, 7]: > 16.4 µM
IC50 [3]: > 20 µM
inhibition at 20 µM [4]: 87%
IC50 ([5]; THP-1, in-house control stock, not the PBox sample, two tests, read-out: IC50 of standard in-house assay control, L. donovani): 0.41 µM
IC50 [5, 10]: > 20 µM
inhibition at 20 µM [5, 11]: 100%
activity against L. donovani at 20 μM ([5]; PBox sample, 20 μM): not active

CC(=O)NC[C@H]1CN(c2ccc(N3CCOCC3)c(F)c2)C(=O)O1 [Linezolid, reference compound]
IC50 [1, 6]: > 20 µM
IC50 (3T3 host cells): > 16.4 µM
IC50 [2, 7]: > 16.4 µM
IC50 [3]: > 20 µM
IC50 [4, 8]: > 20 µM
IC50 [5, 9]: > 20 µM
IC50 [5, 10]: > 20 µM

COc1cc(NC(C)CCCN)c2ncccc2c1 (centres unmarked) [Primaquine, reference compound]
inhibition at 20 µM ([1]; reference compound set): 91%
inhibition at 16.4 µM (3T3 host cells; 16.4 μM, read-out: percent inhibition at the top screening dose, 3T3 host cells): 73%
inhibition at 16.4 µM ([2]; reference compound set): 94%
inhibition at 20 µM [3]: 96%
inhibition at 20 µM [4]: 91%
inhibition at 20 µM [5, 11]: 33%
inhibition at 20 µM [5, 12]: 79%

[H]/N=C(/N)N[C@H]1[C@H](O)[C@@H](O)[C@H](O[C@@H]2O[C@@H](C)[C@](O)(C=O)[C@H]2O[C@@H]2O[C@@H](CO)[C@H](O)[C@@H](O)[C@@H]2NC)[C@@H](N/C(N)=N\[H])[C@@H]1O [Streptomycin, reference compound]
IC50 [1, 6]: > 20 µM
IC50 (3T3 host cells): > 16.4 µM
IC50 [2, 7]: > 16.4 µM
inhibition at 20 µM [3]: 41%
IC50 [4, 8]: > 20 µM
IC50 [5, 9]: > 20 µM
IC50 [5, 10]: > 20 µM

COC(=O)Nc1nc2ccc(C(=O)c3ccccc3)cc2[nH]1 [Mebendazole, reference compound]
IC50 [1, 6]: > 20 µM
IC50 (3T3 host cells): > 16.4 µM
IC50 [2, 7]: > 16.4 µM
IC50 [3]: > 20 µM
IC50 [4, 8]: > 20 µM
IC50 [5, 9]: > 20 µM
IC50 [5, 10]: > 20 µM

CC(=O)Oc1ccccc1C(=O)Nc1ncc([N+](=O)[O-])s1 [Nitazoxanide, reference compound]
inhibition at 20 µM ([1]; reference compound set): 41%
IC50 (3T3 host cells): > 16.4 µM
IC50 [2, 7]: > 16.4 µM
IC50 [3]: > 20 µM
IC50 [4, 8]: > 20 µM
inhibition at 20 µM [5, 11]: 44%
inhibition at 20 µM [5, 12]: 41%

NCC[C@H](O)C(=O)N[C@@H]1C[C@H](N)[C@@H](O[C@H]2O[C@H](CN)[C@@H](O)[C@H](O)[C@H]2O)[C@H](O)[C@H]1O[C@H]1O[C@H](CO)[C@@H](O)[C@H](N)[C@H]1O [Amikacin, reference compound]
IC50 [1, 6]: > 20 µM
IC50 (3T3 host cells): > 16.4 µM
IC50 [2, 7]: > 16.4 µM
IC50 [3]: > 20 µM
IC50 [4, 8]: > 20 µM
IC50 [5, 9]: > 20 µM
IC50 [5, 10]: > 20 µM

CC[C@@H](CO)NCCN[C@@H](CC)CO [Ethambutol, reference compound]
IC50 [1, 6]: > 20 µM
IC50 (3T3 host cells): > 16.4 µM
IC50 [2, 7]: > 16.4 µM
inhibition at 20 µM [3]: 42%
IC50 [4, 8]: > 20 µM
IC50 [5, 9]: > 20 µM
IC50 [5, 10]: > 20 µM

C[C@H]1c2cccc(O)c2C(=O)C2=C(O)[C@]3(O)C(=O)C(C(N)=O)=C(O)[C@@H](N(C)C)[C@@H]3[C@@H](O)[C@@H]21 [Doxycycline, reference compound]
IC50 [1, 6]: > 20 µM
IC50 (3T3 host cells): > 16.4 µM
IC50 [2, 7]: > 16.4 µM
inhibition at 20 µM [3]: 77%
inhibition at 20 µM [4]: 90%
IC50 [5, 9]: > 20 µM
IC50 [5, 10]: > 20 µM

OC(c1cc(C(F)(F)F)nc2c(C(F)(F)F)cccc12)C1CCCCN1 (centres unmarked) [Mefloquine, reference compound]
IC50 [1, 6]: 0.33 µM
IC50 (3T3 host cells): > 16.4 µM
IC50 [2, 7]: 4.7 µM
Emax ([2]; reference compound set): 99%
IC50 [3]: 5.61 µM
IC50 ([4]; 3D7, read-out: IC50 P. falciparum 3D7 ABS, reference compound set, 11-point dose response, IA = inactive at 20 μM): < 0.016 µM
IC50 [5, 9]: 5.17 µM
IC50 [5, 10]: 6.58 µM

CC[C@@H]([C@H](C)O)n1ncn(-c2ccc(N3CCN(c4ccc(OC[C@@H]5CO[C@@](Cn6cncn6)(c6ccc(F)cc6F)C5)cc4)CC3)cc2)c1=O [Posaconazole, reference compound]
IC50 [1, 6]: > 20 µM
IC50 (3T3 host cells): > 16.4 µM
IC50 [2, 13]: 0.001 µM
IC50 [2, 7]: 0.172 µM
Emax ([2]; reference compound set): 73%
inhibition at 20 µM [3]: 63%
IC50 [4, 8]: 4.1 µM
inhibition at 20 µM [5, 11]: 64%
inhibition at 20 µM [5, 12]: 60%

COc1nc2ccc(Br)cc2cc1[C@@H](c1ccccc1)[C@@](O)(CCN(C)C)c1cccc2ccccc12 [Bedaquiline, reference compound]
inhibition at 20 µM ([1]; reference compound set): 59%
IC50 (3T3 host cells): > 16.4 µM
IC50 [2, 7]: > 16.4 µM
inhibition at 20 µM [3]: 75%
inhibition at 20 µM [4]: 91%
IC50 [5, 9]: > 20 µM
IC50 [5, 10]: > 20 µM

CC1CS(=O)(=O)CCN1/N=C/c1ccc([N+](=O)[O-])o1 (centres unmarked) [Nifurtimox, reference compound]
IC50 [1, 6]: 5.38 µM
IC50 (3T3 host cells): > 16.4 µM
IC50 [2, 13]: 1.23 µM
IC50 [2, 7]: 1.42 µM
Emax ([2]; reference compound set): 100%
inhibition at 20 µM [3]: 39%
IC50 [4, 8]: > 20 µM
IC50 [5, 9]: > 20 µM
IC50 [5, 10]: > 20 µM

O=C(C1CCCCC1)N1CC(=O)N2CCc3ccccc3C2C1 (centres unmarked) [Praziquantel, reference compound]
IC50 [1, 6]: > 20 µM
IC50 (3T3 host cells): > 16.4 µM
IC50 [2, 7]: > 16.4 µM
IC50 [3]: > 20 µM
IC50 [4, 8]: > 20 µM
IC50 [5, 9]: > 20 µM
IC50 [5, 10]: > 20 µM

Cc1ccc(C(=O)Nc2ccc(S(=O)(=O)O)c3cc(S(=O)(=O)O)cc(S(=O)(=O)O)c23)cc1NC(=O)c1cccc(NC(=O)Nc2cccc(C(=O)Nc3cc(C(=O)Nc4ccc(S(=O)(=O)O)c5cc(S(=O)(=O)O)cc(S(=O)(=O)O)c45)ccc3C)c2)c1 [Suramin, reference compound]
IC50 [1]: 0.11 µM
IC50 (3T3 host cells): > 16.4 µM
IC50 [2, 7]: > 16.4 µM
IC50 [3]: > 20 µM
IC50 [4, 8]: > 20 µM
IC50 [5, 9]: > 20 µM
IC50 [5, 10]: > 20 µM
